Assays:
HFF-1 = experiment: Growth inhibition, SRB assay, normal HFF-1 cells; format: cell-based, human; conditions: Homo sapiens, HFF-1, 48 h
Source text: (§1) Table 2 refers to the growth inhibitory effect of COMP, olaparib and cisplatin (CDDP) in a panel of human immortalized breast (T47D, MCF-7, MDA-MB-231, MDA-MB-468, SK-BR-3 and HCC1937), ovarian and endocervical (OCVAR, SKOV-3, […],IGROV-1 and HeLa), pancreatic (PANC-1 and MIAPACA), neuroblastoma (SHSY-5Y), lung (NCI-H460), prostate (VCaP) melanoma (A375 and SK-MEL-5) and glioblastoma (SF-208) cancer cells, immortalized normal MCF10a and HFF1 human cells, and patient-derived ovarian (PD-OVCA #1, #9, #41, #49 and #62) cancer cells. […] Data are mean±SEM (n=5).
(§2) In an embodiment, IC50 values were determined by Sulforhodamine B (SRB) or MTS [3-(4,5-dimethylthiazol-2-yl)-5-(3-carboxymethoxyphenyl)-2-(4-sulfophenyl)-2H-tetrazolium] assay in immortalized and PD-OVCA cells, respectively. Cancer cells were plated in 96-well plates and incubated for 24 hours. Cells were then exposed to serial dilutions of compounds for 48 hours. The solvent DMSO corresponding to the maximum concentration used in these assays (0.025%) was included as control. Results are the mean±S.E.M. of 3-5 independent experiments.

HeLa = experiment: Growth inhibition, SRB assay, HeLa; format: cell-based; conditions: Homo sapiens, wild-type BRCA1/2, 48 hours
Source text: as §1, §2

A375 = experiment: Growth inhibition, SRB assay, A375; format: cell-based; conditions: Homo sapiens, A-375, A375, wild-type BRCA1/2, 48 hours
Source text: as §1, §2

[1] = tested on: MDA-MB-231, HCC1937 and IGROV-1 cells; experiment: Combination with CDDP or olaparib, SRB assay; format: cell-based, human; conditions: single concentration of COMP with concentration range of CDDP or olaparib, 48 hours; CI<1, synergy
Procedure: FIG. 13 illustrates that COMP sensitizes triple-negative breast cancer and ovarian cancer cells to the effect of cisplatin (CDDP) and olaparib. Cells were treated with a concentration range of CDDP and olaparib alone and in combination with a single concentration of COMP (with no significant effect on cells growth) in MDA-MB-231 (FIG. 13A), HCC1937 (FIG. 13B) and IGROV-1 (FIG. 13C). Cell proliferation was measured by SRB assay after 48 hours of treatment; growth obtained with control (DMSO) was set as 100%. […] Combination index (CI) and dose-reduction index (DRI) for each combined treatment were calculated using CompuSyn software (CI<1, synergy; 1<CI<1.1, addictive effect; CI>1.1, antagonism); data were calculated using a mean value effect of six independent experiments.
In an embodiment, COMP sensitizes triple-negative breast cancer and ovarian cancer cells to the effect of CDDP and olaparib as shown by the enhancement of the growth inhibitory effect and promising synergistic effects between COMP and CDDP or olaparib (CI<1), with a noticeable reduction in the effective dose of chemotherapeutic agents (FIGS. 13A-C).

[2] = tested on: triple-negative breast cancer and ovarian cancer cells; experiment: Apoptosis by flow cytometry (FITC-Annexin V/PI); format: cell-based, human; conditions: 6 and 12 μM, 48 hours
Procedure: (§3) Cell cycle phases were analysed by flow cytometry using propidium iodide (PI) and quantified using the FlowJo software. Apoptosis and ROS were analysed by flow cytometry using FITC-Annexin V/PI and 2′,7′-dichlorodihydrofluorescein diacetate (H2DCFDA) respectively.

[3] = Body and organ weight of treated xenograft mice; format: in vivo; conditions: 2 mg/kg intraperitoneal, seven administrations; compared to vehicle
Procedure: FIG. 14 illustrates the in vivo antitumor activity of COMP. C57BL/6-Rag2−/−IL2rg−/− xenograft mice, carrying IGROV-1 cells, were treated with vehicle (control), or 2 mg/kg of COMP or 50 mg/kg of olaparib by intraperitoneal injection three times per week (seven administrations in total). The treatment was initiated when palpable tumors were established (^˜100 mm3). […] In FIGS. 14A-C, data are mean±SEM, n=13 animals.

SKOV-3 = experiment: Growth inhibition, SRB assay, SKOV-3; format: cell-based, human; conditions: Homo sapiens, SK-OV-3, 48 h
Source text: as §1, §2

[4] = tested on: triple-negative breast cancer and ovarian cancer cells (MDA-MB-231, IGROV-1, HCC1937); experiment: Colony-formation assay; format: cell-based, human; conditions: 8 days (MDA-MB-231 and IGROV-1), 16 days (HCC1937) of treatment
Procedure: FIG. 4 illustrates the effect of COMP on (A-B) colony formation of cancer cells after 8 days (MDA-MB-231 and IGROV-1) and 16 days (HCC1937) of treatment. In FIG. 4A, representative experiments are shown.
In an embodiment, colony-formation assay was performed.

[5] = tested on: key proteins involved in homologous recombination, proliferation and chemoresistance; experiment: Protein expression by western blot; format: cell-based, human; conditions: 12 μM, 48 hours
Procedure: FIG. 6 illustrates the effect of 12 μM COMP on the (A-B) expression of key proteins involved in homologous recombination, proliferation and chemoresistance in triple-negative breast cancer and ovarian cancer cells after 48 hours of treatment.
In an embodiment, the COMP compound modulated the expression of key proteins involved in homologous DNA repair, proliferation, chemoresistance, induced cell cycle arrest, apoptosis and ROS generation, in triple-negative breast cancer and ovarian cancer cells.

[6] = tested on: PD-OVCA#41 (mutBRCA2: c. 3707dupA); experiment: Growth inhibition, MTS assay, PD-OVCA#41; format: cell-based, human; conditions: Homo sapiens, PD-OVCA#41, benign mutant BRCA1 with pathogenic mut BRCA2, 48 hours
Source text: as §1, §2

NCI-H460 = experiment: Growth inhibition, SRB assay, NCI-H460; format: cell-based; conditions: Homo sapiens, NCI-H460, wild-type BRCA1/2, 48 hours
Source text: as §1, §2

[7] = tested on: triple-negative breast cancer and ovarian cancer cells; experiment: ROS generation (H2DCFDA flow cytometry); format: cell-based, human; conditions: 6 and 12 μM, 48 hours
Procedure: as §3

IC50 (HeLa): 5.8 ± 0.8 µM | IC50 (A375): 15.5 ± 0.5 µM | organs weight (spleen, liver, heart and kidneys) [3]: no significant variation | IC50 (SKOV-3; SKOV-3, wild-type BRCA1/2, 48 hours): 8.9 ± 2.5 µM | IC50 (SKOV-3; Skov-3, BRCA1 wild-type, 48 hours (second Table 2)): 8.9 µM | IC50 (NCI-H460): 15.5 ± 1.5 µM
Compound: CC[C@H]1CN(C)C2Cc3c([nH]c4ccccc34)/C(=N/Nc3ccc(Br)cn3)C[C@@H]1[C@@H]2C(=O)OC [COMP, methyl (5R,6S,14S,E)-8-(2-(5-bromopyridin-2-yl) hydrazineylidene)-5-ethyl-3-methyl-2,3,4,5,6,7,8,9-octahydro-1H-2,6-methanoazecino [5,4-b]indole-14-carboxylate]
IC50 (HFF-1; HFF1 normal cells, 48 hours (second Table 2)): 33.6 µM | IC50 (HFF-1; HFF-1 normal cells, 48 hours): 33.6 µM | Combination index (CI) of COMP with CDDP or olaparib [1]: < 1 | apoptotic cell death (Annexin-V-positive cells) [2]: significant increase in apoptotic cell death | body weight [3]: no significant variation | colony-forming ability of cancer cells [4]: significantly reduced | PUMA and cleaved PARP protein expression levels [5]: increase | expression levels of DNA damage repair proteins (BRCA1, BRCA2, RAD51, RAD52, FANCD2, pATM, pATR) and resistance-related proteins (CDK2, survivin, BARD1) [5]: significantly decreased | expression of p21 [5]: increased expression of p21 | IC50 [6]: 14.1 ± 0.9 µM | ROS production [7]: increases ROS production

— patent publication US20250345317A1, “New pharmaceutical compounds, methods and uses thereof” (BBIT-THERAPEUTICS, LDA., priority 2020, published 2025)
